Reference: PubChem BioAssay AID220 (DTP/NCI, 2004)
Several values for one entry are separate records, joined by “and”; a condition that tells them apart may be missing. Identical values can stand only once. Records with an inconclusive call do not appear. Starred links: 1 amine or outer side, 2 acyl side, 3 side chain; linkers in the order of their positions; H or OH if unused. Positions of bridges follow the written chain, without caps; N, C: chain ends. Non-standard residues stand in square brackets, D forms with d. Residues, ends and D or L forms follow the SMILES beside them. Chains are numbered I, II in the order given. Actinocin(9to1) = Cc1c2oc3c(C)ccc(C(=O)[*:1])c3nc-2c(C(=O)[*:2])c(N)c1=O; aThr = C[C@H](O)[C@H](N)C(=O)O; NMeV = CN[C@H](C(=O)O)C(C)C; Sar = CNCC(=O)O

Test system: CD8F1 mice, subcutaneous mammary adenocarcinoma, T/C%
Test: NCI In Vivo Anticancer Drug Screen. Data for tumor model Mammary Adenocarcinoma CD8F1 (subcutaneous) in CD8F1
Settings: higher = larger tumour
Method in brief: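 Transplantable tumors were established in mice, animals were dosed with compound or vehicle, and survival or tumor size was then measured in both groups. The treated result was divided by the control result.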

Cc1c2oc3c(C)ccc(C(=O)N[C@@H]4C(=O)N[C@H](C(C)C)C(=O)N5CCC[C@H]5C(=O)N(C)CC(=O)N(C)[C@@H](C(C)C)C(=O)O[C@H]4C)c3nc-2c(C(=O)N[C@@H]2C(=O)N[C@H](C(C)C)C(=O)N3CCC[C@H]3C(=O)N(C)CC(=O)N(C)[C@@H](C(C)C)C(=O)O[C@H]2C)c(N)c1=O (I: [aThr][dV]P[Sar][NMeV] / II: [aThr][dV]P[Sar][NMeV]; ester I:1-I:C, II:1-II:C; linker I:N-II:N via Actinocin(9to1))
T/C (endpoint: mean tumor weight, dose: 0.02 mg/kg/injection, schedule: Q01DX009 (ip), vehicle: saline): 98 % of control | T/C (endpoint: mean tumor weight, dose: 0.03 mg/kg/injection, schedule: Q01DX009 (ip), vehicle: saline + alcohol): 73 % of control | T/C (endpoint: mean tumor weight, dose: 0.04 mg/kg/injection, schedule: Q01DX009 (ip), vehicle: saline + alcohol): 65 % of control | T/C (endpoint: mean tumor weight, dose: 0.04 mg/kg/injection, schedule: Q01DX009 (ip), vehicle: saline): 28 % of control | T/C (endpoint: mean tumor weight, dose: 0.1 mg/kg/injection, schedule: Q07DX007 (ip), vehicle: saline): 36 % of control | T/C (endpoint: mean tumor weight, dose: 0.2 mg/kg/injection, schedule: Q07DX007 (ip), vehicle: saline): 5 % of control | T/C (endpoint: median tumor weight (est.), dose: 0.03 mg/kg/injection, schedule: Q07DX005 (ip), vehicle: saline): 56 % of control | T/C (endpoint: median tumor weight (est.), dose: 0.15 mg/kg/injection, schedule: Q07DX005 (ip), vehicle: saline): 34 % of control and 49 % of control | T/C (endpoint: median tumor weight (est.), dose: 0.3 mg/kg/injection, schedule: Q07DX005 (ip), vehicle: saline): 24 % of control | T/C (endpoint: median tumor weight (est.), dose: 12.5 micrograms/kg/injection, schedule: Q07DX005 (ip), vehicle: saline): 66 % of control | T/C (endpoint: median tumor weight (est.), dose: 25.0 micrograms/kg/injection, schedule: Q07DX005 (ip), vehicle: saline): 60 % of control | T/C (endpoint: median tumor weight (est.), dose: 50.0 micrograms/kg/injection, schedule: Q07DX005 (ip), vehicle: saline): 70 % of control | T/C (endpoint: median tumor weight (est.), dose: 100.0 micrograms/kg/injection, schedule: Q07DX005 (ip), vehicle: saline): 38 % of control | T/C (endpoint: median tumor weight (est.), dose: 200.0 micrograms/kg/injection, schedule: Q07DX005 (ip), vehicle: saline): 9 % of control | T/C (endpoint: median tumor weight change, dose: 0.12 mg/kg/injection, schedule: Q01DX001 (ip), vehicle: saline): 55 % of control | T/C (endpoint: median tumor weight change, dose: 0.25 mg/kg/injection, schedule: Q01DX001 (ip), vehicle: saline): 30 % of control and 39 % of control | T/C (endpoint: median tumor weight change, dose: 0.5 mg/kg/injection, schedule: Q01DX001 (ip), vehicle: saline): 7 % of control and 27 % of control

Nc1ccc(S(N)(=O)=O)cc1
T/C (endpoint: median tumor weight change, dose: 62.5 mg/kg/injection, schedule: Q01DX001 (ip), vehicle: saline with Tween-80): 112 % of control | T/C (endpoint: median tumor weight change, dose: 125.0 mg/kg/injection, schedule: Q01DX001 (ip), vehicle: saline with Tween-80): 110 % of control | T/C (endpoint: median tumor weight change, dose: 250.0 mg/kg/injection, schedule: Q01DX001 (ip), vehicle: saline with Tween-80): 88 % of control | T/C (endpoint: median tumor weight change, dose: 500.0 mg/kg/injection, schedule: Q01DX001 (ip), vehicle: saline with Tween-80): 64 % of control | T/C (endpoint: median tumor weight change, dose: 1000.0 mg/kg/injection, schedule: Q01DX001 (ip), vehicle: saline with Tween-80): 124 % of control

Cc1c(CNc2ccc(C(=O)NC(CC(=O)O)C(=O)O)cc2)ccc2nc(N)nc(N)c12 (stereo not given)
T/C (endpoint: median tumor weight (est.), dose: 3.12 mg/kg/injection, schedule: Q07DX005 (ip), vehicle: saline with Tween-80): 28 % of control | T/C (endpoint: median tumor weight (est.), dose: 3.13 mg/kg/injection, schedule: Q07DX005 (ip), vehicle: saline with Tween-80): 26 % of control | T/C (endpoint: median tumor weight (est.), dose: 6.25 mg/kg/injection, schedule: Q07DX005 (ip), vehicle: saline with Tween-80): 29 % of control
